Tests used:
[1] = test system: zona pellucida of immature oocytes; assay: sperm-zona pellucida binding assay (ZBA); assay type: cell-based, cynomolgus macaque
sperm = sperm percent motility and progression scoring; assay type: cell-based, cynomolgus macaque; settings: for effect on percentage of motile sperm and sperm progression: zona binding studies, 1.5 mg/ml, pre- or post-capacitation treatment
Method: Four adult male cynomolgus macaques which were caged individually at the California Regional Primate Research Center (CRPRC) in compliance with the Federal Animal Welfare Act and the NIH Guidelines for Care and Use of Laboratory Animals. The animals were maintained on a 12L:12D light cycle at 25-27° C. and were given a diet of Purina monkey chow and water ad libitum. Semen samples were collected by electroejaculation, e.g., as described in Sarason et al., The use of nonmetal electrodes in ejaculation of restrained but unanesthetized macaques, (1991) J. Med. Primatol., 20:122-125, into 15 ml centrifuge tubes containing 5 ml of Hepes-buffered BWW maintained at room temperature (RT). After 15-30 min, the coagulum was removed, the semen samples were further diluted with an additional 5 ml of Hepes-buffered BWW containing 3 mg/ml bovine serum albumin (BSA) and then concentrated into a 1 ml pellet by centrifugation at 300×g for 10 minutes. LSA (previously dissolved in hepes-buffered BWW salts) was added to half of the pellet to give a final concentration of 1.5 mg LSA/ml of sperm. An equal volume of hepes-buffered BWW salts was added to the other half of the pellet. Both aliquots were incubated at room temperature for 40 minutes and then washed and capacitated, e.g., as described in Tollner T L, et al., Soybean trypsin inhibitor as a probe for the acrosome reaction in motile cynomolgus macaque sperm (2000) Zygote 8:127-137. Briefly, sperm were centrifuged through 3.5 ml of 80% Percoll for 25 minutes at 400 g. The supernatant containing Percoll and any remaining sperm was removed and the sperm pellet was resuspended in bicarbonate-buffered BWW, e.g., as described in Overstreet et al., Penetration of human spermatozoa into the human zona pellucida and the zona-free hamster egg: a study of fertile donors and infertile patients, (1980), Fertil. Steril., 33:534-542; and, Overstreet et al., In vitro capacitation of human spermatozoa after passage through a column of cervical mucus, (1980) Fert. Steril., 34:604-606, containing 30 mg/ml of BSA. Sperm were washed two more times by centrifugation at 300 g for 10 minutes and dilution in this medium. […] Following activation, 200 sperm per treatment were scored for percent motility at 200× magnification with phase-contrast optics using a BH-2 series Olympus microscope. Progression was assessed with a 0-4 rating system (0=no progressive sperm; 1=1-25% of motile sperm have forward (space gaining) progressive motility; 2=26-50% of motile sperm have forward progressive motility; 3=51-75% of motile sperm have forward progressive motility; 4=76-100% of motile sperm have forward progressive motility).

mature oocytes = assay: in vitro fertilization (IVF) with treated sperm; assay type: cell-based, cynomolgus macaque; settings: 1.5 mg/ml
[2] = oral; cited from earlier work
[3] = 1.5 mg/ml added post-capacitation (PC, Post-C), after activation
[4] = 1.5 mg/ml added pre-capacitation (Pre-C, pre-wash PW), prior to washing through Percoll and overnight incubation

Substance | inhibition of sperm-zona binding as compared to controls [1, 3] [%] | inhibition of sperm-zona binding as compared to controls [1, 4] [%] | effect on percentage of motile sperm and sperm progression (sperm) | effect on sperm motility in IVF (sperm; IVF sperm preparations) | percentage of sperm developing hyperactivated motility patterns consistent with capacitation (sperm; LSA-treated and control sperm) [%] | fertilization in IVF trials (mature oocytes; post-capacitation (Post-C, PC) treatment) | fertilization in IVF trials (mature oocytes; pre-capacitation (prewash, PW, Pre-C) treatment) | LD50 [2] [mg/kg] | binding of treated sperm to the zona pellucida of immature oocytes (in words) ([1]; treatment post-capacitation (PC) or pre-wash (PW), FIG. 3)
Fucoidan [reference compound] | 91.5 | 36 | No motility changes were observed | – | – | – | – | – | –
Lignosulfonic acid [LSA] | 92.5 | 82.5 | Neither the percentage of motile sperm or sperm progression were effected | no difference between treatments on sperm motility | > 75 | blocked fertilization | blocked fertilization | > 40000 | –
polyanetholesulfonic acid [PASA] | – | – | – | – | – | – | – | – | inhibited their binding to the zona pellucida

Source: patent US20030134803A1, “Use of sulfonated compounds as a barrier contraceptive” (The Regents of the University of California, priority 2002, published 2003)
